One data set has as its system MCF-7 cells. Nature of the data set: Cell viability assay (MTT/AlamarBlue), antiproliferative activity. The format is cell-based, human. To be noted: for IC50: Homo sapiens, MCF7, 72 h, read-out: IC50 (MCF-7, 72 h). The source says: […]. The introduction of the halogen substituent at C-3 was examined in an effort to investigate the effect on the activity of this substituent, and subsequently optimising the cytotoxic effects against MCF-7 human breast cancer cells.
The human breast carcinoma cell line MCF-7 was purchased from the European Collection of Animal Cell Cultures (ECACC). Triple negative breast cancer Hs578T cells and its invasive variant Hs578Ts(i)8 were a kind gift from Dr. Susan McDonnell, School of Chemical and Bioprocess Engineering, University College Dublin. U266 cells were a gift from Dr. Tony McElligott, School of Medicine, St James’s Hospital, Trinity College Dublin. HT-29 cells were purchased from the European Collection of Cell Cultures (originating from a human adenocarcinoma of the colon). The human breast carcinoma cell line MDA-MB-231 and the HL-60 cells derived from a patient with acute myeloid leukaemia were both obtained from ECACC (Salisbury, UK). The SW-480 cells were a kind gift from Dr. Brian Flood, School of Biochemistry and Immunology, Trinity College Dublin. HEK-293T (normal epithelial embryonic kidney cells) were cultured in Dulbecco’s Modified Eagle’s Medium (DMEM) with GlutaMAXTM-I in the absence of non-essential amino acids. Human breast cancer MCF-7 cells and multiple myeloma U266 cells were cultured in Minimum Essential Media (MEM) with GlutaMAX™-I, supplemented with 1% (v/v) non-essential amino acids, 10% 2(v/v) foetal bovine serum (FBS) and 1% (v/v) penicillin/streptomycin 5000 U/mL. MDA-MB-231 cells were maintained in DMEM supplemented with 10% (v/v) foetal bovine serum, 2 mM L-glutamine and 100 μg/mL penicillin/streptomycin (complete medium). Colon cancer HT-29 and SW-480 and triple negative breast cancer Hs578T and its invasive variant Hs578T8i were cultured in DMEM with GlutaMAX™-I, with the same supplement in the absence of non-essential amino acids. Leukaemia HL-60 cancer cells were cultured in Roswell Park Memorial Institute Media (RPMI-1640) with GlutaMAX™-I, supplemented with 10% FCS media, and 100 μg/mL penicillin/streptomycin as above. Cell numbers were monitored using a haemocytometer. Cell culture flasks were incubated in a humidified incubator (5% CO2/95% air) at 37 °C. All cell lines were sub-cultured three times per week with trypsinisation using TrypLE Express (1X) required for adherent cell lines.
. All stock solutions and serial dilution in ethanol/DMSO were stored at -20 °C. All cells were seeded at a density of 2.5 × 10^4 cells/mL in a 96-well plate (200 μL per well). The cells were incubated in a […] atmosphere at 37 °C for 24 h, then treated with test compound (2 μL of stock solutions per 200-microlitre well) in ethanol to obtain a concentration range of 1 nM–200 μM for the study. The plates were then re-incubated for a further 72 h. Control wells contained an equivalent volume of the vehicle ethanol or DMSO (1% v/v). MTT cell viability assay: The culture medium was removed, and the cells were washed with phosphate buffered saline (PBS, […]). MTT (dissolved in PBS, […]) was added to obtain a final concentration of MTT (1 mg/mL). Cells were incubated at 37 °C for 3 h in the dark. Solubilisation was commenced by the addition of DMSO ([…]) and the cells were maintained at 20 °C in the dark for 20 min before reading the absorbance to ensure complete colour diffusion. The absorbance value of control cells (no added compound) was set to 100% cell viability and absorbance versus cell density per well was determined to assess cell viability using Graph-Pad Prism software. AlamarBlue cell viability assay: Cells were seeded in 96-well plates (e.g., MCF-7, 5 × 10^3 cells/well) and (HT-29 cells, 1 × 10^3 cells/well) and (HL-60 cells, 1 × 10^4 cells/well) with a total volume per well of 200 µL. After 24 h, cells were treated in triplicate with serial dilutions of CA-4 or β-lactam analogues (0.001–100 μM), medium alone or vehicle (1% ethanol (v/v)). […]
(In general: Alamar Blue is a resazurin reagent that responds to reducing activity.)

Experimental findings from PMC8624998, “Synthesis and Antiproliferative Evaluation of 3-Chloroazetidin-2-ones with Antimitotic Activity: Heterocyclic Bridged Analogues of Combretastatin A-4” (Pharmaceuticals, 2021) are described below.

Where two headings read alike, the source gives them in different places. Marks after values point to notes of the source that are not given here.

With `CCOc1ccc(N2C(=O)C(Cl)C2c2cc(OC)c(OC)c(OC)c2)cc1` (stereo not drawn) [Compound 12b, 3-Chloro-1-(4-ethoxyphenyl)-4-(3,4,5-trimethoxyphenyl)azetidin-2-one], the melting point lay in the range of 113 to 115 °C. Also, the “inhibition of cell viability at a concentration of 10 μM” value (shortened to “inhibition of cell viability”) in the data set with MCF-7 cells (MCF-7, 72 h) was 25% (10 μM) ^c.

The compound `COc1cc(N2C(=O)C(Cl)C2c2ccc(OCc3ccccc3)cc2)cc(OC)c1OC` (stereo not drawn) [Compound 10h, 4-(4-Benzyloxyphenyl)-3-chloro-1-(3,4,5-trimethoxyphenyl)azetidin-2-one] returned a melting point of 96 to 98 °C. Moreover, the IC50 in the data set with MCF-7 cells (MCF-7, 72 h) was 59900 ± 6990 nM.

In the case of `COc1cc(N2C(=O)C(Cl)C2c2ccc([N+](=O)[O-])cc2)cc(OC)c1OC` (stereo not drawn) [Compound 10d, 3-Chloro-1-(3,4,5-trimethoxyphenyl)-4-(4-nitrophenyl)azetidin-2-one], in the data set with MCF-7 cells (MCF-7, 72 h), the IC50 amounted to 4370 ± 610 nM.

`COc1ccc(C2C(Cl)C(=O)N2c2cc(OC)cc(OC)c2)cc1` (stereo not drawn) [Compound 14a, 3-Chloro-1-(3,5-dimethoxyphenyl)-4-(4-methoxyphenyl)azetidin-2-one] gave a melting point of 93 to 94 °C. Besides, in the data set with MCF-7 cells (MCF-7, 72 h), the half-maximal inhibitory concentration (IC50) is 680 ± 160 nM.

With `COc1cc(N2C(=O)C(Cl)C2c2ccc(Cl)cc2)cc(OC)c1OC` (stereo not drawn) [Compound 10b, 3-Chloro-4-(4-chlorophenyl)-1-(3,4,5-trimethoxyphenyl)azetidin-2-one], in the data set with MCF-7 cells (MCF-7, 72 h), the IC50 turned out to be 1300 ± 170 nM.

Take `CCOc1ccc(C2C(Cl)C(=O)N2c2cc(OC)cc(OC)c2)cc1` (stereo not drawn) [Compound 14b, 3-Chloro-1-(3,5-dimethoxyphenyl)-4-(4-ethoxyphenyl)azetidin-2-one]: the melting point was in the range of 129 to 130 °C. In the data set on MCF-7 cells (MCF-7, 72 h), the IC50 is 45 ± 10 nM.

Take `CCOc1ccc(N2C(=O)C(Cl)(Cl)C2c2cc(OC)c(OC)c(OC)c2)cc1` (stereo not drawn) [Compound 13b, 3,3-Dichloro-1-(4-ethoxyphenyl)-4-(3,4,5-trimethoxyphenyl)azetidin-2-one]: the melting point fell in the range of 133 to 134 °C. The “inhibition of cell viability” value in the data set on MCF-7 cells (MCF-7, 72 h) was 40% (10 μM)^c.

`COc1cc(N2C(=O)C(Cl)C2c2ccc(Oc3ccccc3)cc2)cc(OC)c1OC` (stereo not drawn) [Compound 10g, 3-Chloro-1-(3,4,5-trimethoxyphenyl)-4-(4-phenoxyphenyl)azetidin-2-one]: the IC50 in the data set on MCF-7 cells (MCF-7, 72 h) was 64100 ± 7300 nM.

Turning to `COc1ccc(C2N(c3cc(OC)c(OC)c(OC)c3)C(=O)C2(Cl)Cl)cc1OP(=O)(O)O` (stereo not drawn) [Compound 18, 5-(3,3-Dichloro-1-(3,4,5-trimethoxyphenyl)-4-oxoazetidin-2-yl)-2-methoxyphenyl dihydrogen phosphate], the IC50 in the data set with MCF-7 cells is 77 ± 10 nM.

Compound `COc1ccc(N2C(=O)C(Cl)C2c2cc(OC)c(OC)c(OC)c2)cc1` (stereo not drawn) [Compound 12a, 3-Chloro-1-(4-methoxyphenyl)-4-(3,4,5-trimethoxyphenyl)azetidin-2-one] displayed a melting point of 101 to 102 °C. Moreover, the 50% inhibitory concentration (IC50) with MCF-7 cells (MCF-7, 72 h) came out at 14800 ± 1580 nM.

For `COc1cc(N2C(=O)C(Br)C2c2ccc(SC)cc2)cc(OC)c1OC` (stereo not drawn) [Compound 16c, 3-Bromo-4-(4-(methylthio)phenyl)-1-(3,4,5-trimethoxyphenyl)azetidin-2-one], in the data set with MCF-7 cells (MCF-7, 72 h), the IC50 amounted to 613 ± 40 nM.

For `COc1cc(C2N(c3ccc(SC)cc3)C(=O)C2(Cl)Cl)cc(OC)c1OC` (stereo not drawn) [Compound 13c, 3,3-Dichloro-1-(4-(methylthio)phenyl)-4-(3,4,5-trimethoxyphenyl) azetidin-2-one], the melting point is 117 to 119 °C. The “inhibition of cell viability” value in the data set on MCF-7 cells (MCF-7, 72 h) is recorded as 20% (10 μM)^c.

As for `COc1cc(C2C(Cl)C(=O)N2c2ccc(SC)cc2)cc(OC)c1OC` (stereo not drawn) [Compound 12c, 3-Chloro-1-(4-(methylthio)phenyl)-4-(3,4,5-trimethoxyphenyl) azetidin-2-one], the melting point was in the range of 101 to 103 °C. Moreover, the “inhibition of cell viability” value in the data set on MCF-7 cells (MCF-7, 72 h) is listed as 10% (10 μM) ^c.

Turning to `COc1ccc(C2C(Br)C(=O)N2c2cc(OC)c(OC)c(OC)c2)cc1F` (stereo not drawn) [Compound 16f, 3-Bromo-4-(3-fluoro-4-methoxyphenyl)-1-(3,4,5-trimethoxyphenyl) azetidin-2-one], the half-maximal inhibitory concentration (IC50) with MCF-7 cells (MCF-7, 72 h) came to 390 ± 30 nM.

`COc1ccc(N2C(=O)C(Cl)(Cl)C2c2cc(OC)c(OC)c(OC)c2)cc1` (stereo not drawn) [Compound 13a, 3,3-Dichloro-4-(3,4,5-trimethoxyphenyl)-1-(4-methoxyphenyl)azetidin-2-one]: the melting point lay within 64 to 66 °C. The IC50 in the data set with MCF-7 cells (MCF-7, 72 h) is 45900 ± 6730 nM.

For the compound `COc1cc(N2C(=O)C(Cl)(Cl)C2c2ccc(Oc3ccccc3)cc2)cc(OC)c1OC` (stereo not drawn) [Compound 11g, 3,3-Dichloro-1-(3,4,5-trimethoxyphenyl)-4-(4-phenoxyphenyl)azetidin-2-one], the melting point was 82 to 84 °C. Also, the IC50 in the data set on MCF-7 cells (MCF-7, 72 h) was 62300 ± 10200 nM.

For the compound `COc1ccc([C@@H]2[C@H](Cl)C(=O)N2c2cc(OC)c(OC)c(OC)c2)cc1` (relative stereo) [Compound 10e cis, Cis-3-chloro-1-(3,4,5-trimethoxyphenyl)-4-(4-methoxyphenyl) azetidin-2-one], the IC50 in the data set with MCF-7 cells (MCF-7, 72 h) was 317 ± 40 nM.

Take `COc1ccc(C2C(Br)C(=O)N2c2cc(OC)c(OC)c(OC)c2)cc1C` (stereo not drawn) [Compound 16e, 3-Bromo-4-(4-methoxy-3-methylphenyl)-1-(3,4,5-trimethoxyphenyl) azetidin-2-one]: the IC50 with MCF-7 cells (MCF-7, 72 h) came out at 525 ± 30 nM.

In the case of `COc1ccc(C2C(Br)C(=O)N2c2cc(OC)c(OC)c(OC)c2)cc1Cl` (stereo not drawn) [Compound 16g, 3-Bromo-4-(3-chloro-4-methoxyphenyl)-1-(3,4,5-trimethoxyphenyl) azetidin-2-one], in the data set on MCF-7 cells (MCF-7, 72 h), the IC50 amounted to 472 ± 200 nM.

Compound `COc1cc(N2C(=O)C(Cl)(Cl)C2c2ccc(Cl)cc2)cc(OC)c1OC` (stereo not drawn) [Compound 11b, 3,3-Dichloro-4-(4-chlorophenyl)-1-(3,4,5-trimethoxyphenyl)azetidin-2-one] had a melting point of 150 to 153 °C. The IC50 in the data set with MCF-7 cells (MCF-7, 72 h) amounted to 12800 ± 1080 nM.

Take `COc1cc(N2C(=O)C(Cl)C2c2ccccc2)cc(OC)c1OC` (stereo not drawn) [Compound 10a, 3-Chloro-1-(3,4,5-trimethoxyphenyl)-4-phenylazetidin-2-one]: the IC50 in the data set on MCF-7 cells (MCF-7, 72 h) was 23400 ± 2800 nM.

The compound `COc1cc(N2C(=O)C(Cl)(Cl)C2c2ccc(Br)cc2)cc(OC)c1OC` (stereo not drawn) [Compound 11c, 4-(4-Bromophenyl)-3,3-dichloro-1-(3,4,5-trimethoxyphenyl)azetidin-2-one] gave a melting point of 150 to 152 °C. For the same compound, the IC50 in the data set with MCF-7 cells (MCF-7, 72 h) amounted to 18200 ± 1830 nM.

Turning to `CCOc1ccc(C2N(c3cc(OC)cc(OC)c3)C(=O)C2(Cl)Cl)cc1` (stereo not drawn) [Compound 15b, 3,3-Dichloro-1-(3,5-dimethoxyphenyl)-4-(4-ethoxyphenyl)azetidin-2-one], the IC50 with MCF-7 cells (MCF-7, 72 h) worked out at 273 ± 10 nM.

As to `COc1ccc(C2C(Br)C(=O)N2c2cc(OC)c(OC)c(OC)c2)cc1Br` (stereo not drawn) [Compound 16h, 3-Bromo-4-(3-bromo-4-methoxyphenyl)-1-(3,4,5-trimethoxyphenyl) azetidin-2-one], the IC50 in the data set on MCF-7 cells (MCF-7, 72 h) was 620 ± 40 nM.

`COc1cc(N2C(=O)C(Cl)C2c2ccc(Br)cc2)cc(OC)c1OC` (stereo not drawn) [Compound 10c, 4-(4-Bromophenyl)-3-chloro-1-(3,4,5-trimethoxyphenyl)azetidin-2-one]: the IC50 in the data set with MCF-7 cells (MCF-7, 72 h) worked out at 506 ± 110 nM.

With `COc1ccc(C2N(c3cc(OC)cc(OC)c3)C(=O)C2(Cl)Cl)cc1` (stereo not drawn) [Compound 15a, 3,3-Dichloro-1-(3,5-dimethoxyphenyl)-4-(4-methoxyphenyl)azetidin-2-one], the IC50 in the data set with MCF-7 cells (MCF-7, 72 h) worked out at 6610 ± 2000 nM.

As for `COc1cc(N2C(=O)C(Cl)(Cl)C2c2ccc(OCc3ccccc3)cc2)cc(OC)c1OC` (stereo not drawn) [Compound 11h, 4-(4-Benzyloxyphenyl)-3,3-dichloro-1-(3,4,5-trimethoxyphenyl) azetidin-2-one], the IC50 in the data set with MCF-7 cells (MCF-7, 72 h) amounted to 36300 ± 3680 nM.

One may read the melting point as the temperature, or range, at which the solid turns liquid. The term IC50 denotes the concentration at which inhibition is half-maximal.
